Experimental data published in the NIST ThermoML archive (doi:10.1021/je9002948).
Numbers after ± are expanded uncertainties.

Tests used:
[1] = molar heat capacity at constant pressure; wn = mass fraction of the nth substance listed; conditions: 101 kPa, Liquid, Small sample (50 mg) DSC
[2] = molar heat capacity at constant pressure; conditions: 101.33 kPa, Liquid, Small sample (50 mg) DSC

In the case of NCC(=O)[O-].[Na+] [sodium glycinate] + O, the “molar heat capacity at constant pressure” value ([1]; 298.15 K, w1 = 0.01) is reported as 75.2 ± 1.5 J/K/mol, the “molar heat capacity at constant pressure” value ([1]; 298.15 K, w1 = 0.05) is reported as 76.7 ± 1.5 J/K/mol and the “molar heat capacity at constant pressure” value ([1]; 298.15 K, w1 = 0.1) is reported as 77.39 ± 1.5 J/K/mol. The “molar heat capacity at constant pressure” value ([1]; 298.15 K, w1 = 0.15) was 78.81 ± 1.6 J/K/mol, the “molar heat capacity at constant pressure” value ([1]; 298.15 K, w1 = 0.2) was 78.23 ± 1.6 J/K/mol and the “molar heat capacity at constant pressure” value ([1]; 298.15 K, w1 = 0.3) was 80.84 ± 1.6 J/K/mol. The “molar heat capacity at constant pressure” value ([1]; 303.15 K, w1 = 0.01) was 75.21 ± 1.5 J/K/mol, the “molar heat capacity at constant pressure” value ([1]; 303.15 K, w1 = 0.05) was 76.72 ± 1.5 J/K/mol and the “molar heat capacity at constant pressure” value ([1]; 303.15 K, w1 = 0.1) was 77.41 ± 1.5 J/K/mol. The “molar heat capacity at constant pressure” value ([1]; 303.15 K, w1 = 0.15) was 78.85 ± 1.6 J/K/mol, the “molar heat capacity at constant pressure” value ([1]; 303.15 K, w1 = 0.2) was 78.79 ± 1.6 J/K/mol and the “molar heat capacity at constant pressure” value ([1]; 303.15 K, w1 = 0.3) was 81.46 ± 1.6 J/K/mol. The “molar heat capacity at constant pressure” value ([1]; 308.15 K, w1 = 0.01) was 75.25 ± 1.5 J/K/mol, the “molar heat capacity at constant pressure” value ([1]; 308.15 K, w1 = 0.05) was 76.77 ± 1.5 J/K/mol and the “molar heat capacity at constant pressure” value ([1]; 308.15 K, w1 = 0.1) was 77.47 ± 1.5 J/K/mol. The “molar heat capacity at constant pressure” value ([1]; 308.15 K, w1 = 0.15) was 78.91 ± 1.6 J/K/mol, the “molar heat capacity at constant pressure” value ([1]; 308.15 K, w1 = 0.2) was 79.45 ± 1.6 J/K/mol and the “molar heat capacity at constant pressure” value ([1]; 308.15 K, w1 = 0.3) was 82.1 ± 1.6 J/K/mol. The “molar heat capacity at constant pressure” value ([1]; 313.15 K, w1 = 0.01) was 75.32 ± 1.5 J/K/mol, the “molar heat capacity at constant pressure” value ([1]; 313.15 K, w1 = 0.05) was 76.85 ± 1.5 J/K/mol and the “molar heat capacity at constant pressure” value ([1]; 313.15 K, w1 = 0.1) was 77.53 ± 1.5 J/K/mol. For the same compound, the “molar heat capacity at constant pressure” value ([1]; 313.15 K, w1 = 0.15) was 78.99 ± 1.6 J/K/mol, the “molar heat capacity at constant pressure” value ([1]; 313.15 K, w1 = 0.2) was 80.12 ± 1.6 J/K/mol and the “molar heat capacity at constant pressure” value ([1]; 313.15 K, w1 = 0.3) was 82.75 ± 1.6 J/K/mol. For the same compound, the “molar heat capacity at constant pressure” value ([1]; 318.15 K, w1 = 0.01) was 75.4 ± 1.5 J/K/mol, the “molar heat capacity at constant pressure” value ([1]; 318.15 K, w1 = 0.05) was 76.92 ± 1.5 J/K/mol and the “molar heat capacity at constant pressure” value ([1]; 318.15 K, w1 = 0.1) was 77.59 ± 1.5 J/K/mol. For the same compound, the “molar heat capacity at constant pressure” value ([1]; 318.15 K, w1 = 0.15) was 79.07 ± 1.6 J/K/mol, the “molar heat capacity at constant pressure” value ([1]; 318.15 K, w1 = 0.2) was 80.77 ± 1.6 J/K/mol and the “molar heat capacity at constant pressure” value ([1]; 318.15 K, w1 = 0.3) was 83.44 ± 1.7 J/K/mol. The “molar heat capacity at constant pressure” value ([1]; 323.15 K, w1 = 0.01) was 75.41 ± 1.5 J/K/mol, the “molar heat capacity at constant pressure” value ([1]; 323.15 K, w1 = 0.05) was 77.05 ± 1.5 J/K/mol and the “molar heat capacity at constant pressure” value ([1]; 323.15 K, w1 = 0.1) was 77.67 ± 1.5 J/K/mol. The “molar heat capacity at constant pressure” value ([1]; 323.15 K, w1 = 0.15) was 79.2 ± 1.6 J/K/mol, the “molar heat capacity at constant pressure” value ([1]; 323.15 K, w1 = 0.2) was 81.48 ± 1.6 J/K/mol and the “molar heat capacity at constant pressure” value ([1]; 323.15 K, w1 = 0.3) was 84.11 ± 1.7 J/K/mol.

For O [water], the “molar heat capacity at constant pressure” value ([2]; 303.15 K) was 75.29 ± 1.5 J/K/mol, the “molar heat capacity at constant pressure” value ([2]; 308.15 K) was 75.36 ± 1.5 J/K/mol and the “molar heat capacity at constant pressure” value ([2]; 313.15 K) was 75.38 ± 1.5 J/K/mol. For the same compound, the “molar heat capacity at constant pressure” value ([2]; 318.15 K) was 75.39 ± 1.5 J/K/mol, the “molar heat capacity at constant pressure” value ([2]; 323.15 K) was 75.39 ± 1.5 J/K/mol and the “molar heat capacity at constant pressure” value ([2]; 328.15 K) was 75.39 ± 1.5 J/K/mol. For the same compound, the “molar heat capacity at constant pressure” value ([2]; 333.15 K) was 75.41 ± 1.5 J/K/mol, the “molar heat capacity at constant pressure” value ([2]; 338.15 K) was 75.41 ± 1.5 J/K/mol and the “molar heat capacity at constant pressure” value ([2]; 343.15 K) was 75.43 ± 1.5 J/K/mol. The “molar heat capacity at constant pressure” value ([2]; 348.15 K) was 75.45 ± 1.5 J/K/mol and the “molar heat capacity at constant pressure” value ([2]; 353.15 K) was 75.48 ± 1.5 J/K/mol.
